Reference: patent US11014904B2, “1,2,4-triazine-3-amine derivative, preparation method therefor, and use thereof in medicine” (Jiangsu Hengrui Medicine Co., Ltd., priority 2017, dated 2021)

How the values were obtained:
[1] = biological target: T1, adenosine A1 receptor (A1R) (Homo sapiens, UniProt P30542); assay: Inhibition of the adenosine A1 receptor cAMP signaling pathway in CHO-K1/A1R cells (HTRF); assay type: cell-based; conditions: for IC50: CHO-K1/A1R cells, cAMP, forskolin 10 μM, CPA 10 nM; for IC50 ratio (A1R/A2aR): selectivity A1R over A2aR
T1 construct: expressed in transfected cells; host or cells: CHO-K1
T1 sequence (P30542 1-326): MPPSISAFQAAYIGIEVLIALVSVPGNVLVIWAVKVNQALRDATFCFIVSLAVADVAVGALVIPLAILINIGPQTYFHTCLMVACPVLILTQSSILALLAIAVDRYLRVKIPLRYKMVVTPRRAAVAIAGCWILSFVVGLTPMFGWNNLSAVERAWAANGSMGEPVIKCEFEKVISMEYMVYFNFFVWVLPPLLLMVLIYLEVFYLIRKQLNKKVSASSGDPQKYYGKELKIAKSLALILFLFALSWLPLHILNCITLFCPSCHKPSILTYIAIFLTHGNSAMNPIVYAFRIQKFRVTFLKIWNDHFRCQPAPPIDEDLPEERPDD
Description: Determination of the inhibition activity of the compounds of the present invention on the adenosine A2a receptor (A2aR) cAMP signaling pathway, the adenosine A2b receptor (A2bR) cAMP signaling pathway, the adenosine A1 receptor (A1R) cAMP signaling pathway and the adenosine A3 receptor (A3R) cAMP signaling pathway.
The inhibition activity of the compounds of the present invention on the adenosine A2a receptor (A2aR) cAMP signaling pathway, the adenosine A2b receptor cAMP signaling pathway, the adenosine A1 receptor cAMP signaling pathway and the adenosine A3 receptor cAMP signaling pathway was determined by the following method. The experimental method is briefly described as follows:
2.3 Adenosine A1 Receptor
CHO-K1/A1R cells were cultured in DMEM/F12 medium containing 10% fetal bovine serum and 1 mg/ml G418. The cells were digested with the cell separation buffer during the experiment. The cells were then resuspended in the balanced salt buffer containing 20 mM HEPES and 0.1% bovine serum albumin and counted, and the cell density was adjusted to 5×10^5 cells/ml. In the 384-well plate, each well was added with 12.5 μl of cell suspension, and 6.25 μl of test compound (4× concentration) formulated with the balanced salt buffer containing 20 mM HEPES, 0.1% bovine serum albumin, 54 μM rolipram and 2.7 U/ml adenosine deaminase, and the plate was incubated at room temperature for 30 minutes. Each well was then added with 6.25 μl of forskolin and N6-cyclopentyladenosine (4× concentration) formulated with the balanced salt buffer containing 20 mM HEPES, 0.1% bovine serum albumin, 54 μM rolipram and 2.7 U/ml adenosine deaminase, and the plate was incubated at room temperature for 30 minutes. The final concentrations of the compounds were: 100000, 10000, 1000, 100, 10, 1, 0.1 and 0 nM. The final concentrations of forskolin was 10 μM. The final concentrations of CPA was 10 nM. Intracellular cAMP concentration was detected with the cAMP dynamic 2 kit. cAMP-d2 and Anti-cAMP-Eu-Cryptate were diluted respectively with the cAMP lysis buffer at a ratio of 1:4. Each well was added with 12.5 μl of diluted cAMP-d2, followed by addition of 12.5 μl of diluted Anti-cAMP-Eu-Cryptate, and the plate was incubated at room temperature in the dark for 1 hour. The HTRF signal values were read by the PHERAstar multi-function microplate reader.

[2] = Pharmacokinetics assay in mice; assay type: in vivo; conditions: mouse, po, C57 mice (female), intragastric, 2 mg/kg, plasma; for Vd/F: read-out: Apparent distribution volume Vz/F; for AUC: read-out: Area under curve AUC; for CL/F: read-out: Clearance CLz/F; for half-life: read-out: Half-life T½ (converted); for Cmax: read-out: Plasma concentration Cmax; for MRT: read-out: Residence time MRT
Experimental: Mice were used as test animals. The drug concentration in plasma at different time points was determined by LC/MS/MS method after intragastrical administration of the compounds of Examples 2, 3, 17, 18, 19, 20, 31 and 44 to mice. The pharmacokinetic behavior of the compounds of the present invention was studied and evaluated in mice.
Seventy-two C57 mice (female) were purchased from Shanghai Jiesijie Laboratory Animal Co., LTD, with Certificate No.: SCXK (Shanghai) 2013-0006, and equally divided into 8 groups (9 mice per group).
A certain amount of the test compound was weighed, and added with 5% by volume of DMSO, 5% by volume of tween 80 and 90% by volume of normal saline to prepare a 0.1 mg/mL colorless, clear and transparent solution.
After an overnight fast, C57 mice were administered intragastrically the test compounds at an administration dosage of 2.0 mg/kg and an administration volume of 0.2 mL/10 g.
The mice were intragastrically administered the compounds of Examples 2, 3, 17, 18, 19, 20, 31 and 44. 0.1 ml of blood was taken before administration and at 0.5, 1.0, 2.0, 4.0, 6.0, 8.0, 11.0 and 24.0 hours after administration. The samples were stored in heparinized tubes, and centrifuged for 10 minutes at 3,500 rpm to separate the blood plasma. The plasma samples were stored at −20° C.
The content of the test compounds in the plasma of mice after intragastrical administration of the test compounds at different concentrations was determined: 25 μL of mouse plasma at each time after administration were taken, added with 50 μL of the internal standard solution of camptothecin (100 ng/mL) and 200 μL of acetonitrile, vortex-mixed for 5 minutes, and centrifuged for 10 minutes (4000 rpm). 5 μL of the supernatant were taken from the plasma samples for LC/MS/MS analysis.

| SMILES | IC50 [1] [nM] | IC50 ratio (A1R/A2aR) [1] | Vd/F [2] [L/kg] | AUC [2] [ng·h/mL] | CL/F [2] [mL/min/kg] | half-life [2] [min] | Cmax [2] [ng/mL] | MRT [2] [h] |
| --- | --- | --- | --- | --- | --- | --- | --- | --- |
| CCc1ccnc2ccc(-c3nnc(N)nc3-c3ccc(F)cc3)cc12 [Example 44, 6-(4-Ethylquinolin-6-yl)-5-(4-fluorophenyl)-1,2,4-triazin-3-amine] | 646 | 807 | 4.79 | 501 | 65 | 51 | 720 | 0.85 |
| [2H]C([2H])([2H])c1ncnc2ccc(-c3nnc(N)nc3-c3ccc(F)cc3)cc12 [Example 52, 5-(4-Fluorophenyl)-6-(4-(methyl-d3)quinazolin-6-yl)-1,2,4-triazin-3-amine] | 876 | 973 | – | – | – | – | – | – |
| Cc1ncnc2ccc(-c3nnc(N)nc3-c3ccccc3)cc12 [Example 15, 6-(4-Methylquinazolin-6-yl)-5-phenyl-1,2,4-triazin-3-amine] | 248 | 2484 | – | – | – | – | – | – |
| Cc1ccnc2ccc(-c3nnc(N)nc3-c3ccccc3F)cc12 [Example 17, 5-(2-Fluorophenyl)-6-(4-methylquinolin-6-yl)-1,2,4-triazin-3-amine] | 1350 | 2698 | 15.3 | 204 | 162 | 65.4 | 265 | 1.17 |
| Cc1ncnc2ccc(-c3nnc(N)nc3-c3ccc(F)cc3)cc12 [Example 19, 5-(4-Fluorophenyl)-6-(4-methylquinazolin-6-yl)-1,2,4-triazin-3-amine] | 1420 | 3557 | 1.57 | 5030 | 6.61 | 164 | 1960 | 3.13 |
| Cc1ccnc2c(F)cc(-c3nnc(N)nc3-c3ccccc3)cc12 [Example 16, 6-(8-Fluoro-4-methylquinolin-6-yl)-5-phenyl-1,2,4-triazin-3-amine] | 161 | 803 | – | – | – | – | – | – |
| Cc1ccnc2ccc(-c3nnc(N)nc3-c3ccc(F)cc3)cc12 [Example 18, 5-(4-Fluorophenyl)-6-(4-methylquinolin-6-yl)-1,2,4-triazin-3-amine] | 190 | 948 | 9.01 | 495 | 65 | 95.4 | 402 | 1.43 |
| Nc1nnc(-c2cc(F)c3ncccc3c2)c(-c2ccccc2)n1 [Example 2, 6-(8-Fluoroquinolin-6-yl)-5-phenyl-1,2,4-triazin-3-amine] | 133 | 221 | 14.7 | 412 | 78.3 | 130 | 441 | 1.79 |
| Nc1nnc(-c2ccc3ncccc3c2)c(-c2ccccc2)n1 [Example 3, 5-Phenyl-6-(quinolin-6-yl)-1,2,4-triazin-3-amine] | 97 | 139 | 15.7 | 419 | 78.6 | 138 | 395 | 1.61 |
| Cc1ccnc2c(F)cc(-c3nnc(N)nc3-c3ccc(F)cc3)cc12 [Example 20, 6-(8-Fluoro-4-methylquinolin-6-yl)-5-(4-fluorophenyl)-1,2,4-triazin-3-amine] | 617 | 411 | 3.05 | 1170 | 28 | 74.4 | 866 | 1.41 |
| Cc1ncnc2c(F)cc(-c3nnc(N)nc3-c3ccccc3)cc12 [Example 45, 6-(8-Fluoro-4-methylquinazolin-6-yl)-5-phenyl-1,2,4-triazin-3-amine] | 930 | 775 | – | – | – | – | – | – |
| Cc1ccnc2c(F)cc(-c3nnc(N)nc3-c3ccccc3F)cc12 [Example 31, 6-(8-Fluoro-4-methylquinolin-6-yl)-5-(2-fluorophenyl)-1,2,4-triazin-3-amine] | 1640 | 431 | 16.7 | 339 | 95 | 121 | 302 | 2.02 |
| [2H]C([2H])([2H])c1ccnc2ccc(-c3nnc(N)nc3-c3ccc(F)cc3)cc12 [Example 22, 5-(4-Fluorophenyl)-6-[4-(trideuteromethyl)-6-quinolinyl]-1,2,4-triazin-3-amine] | 100 | 334 | – | – | – | – | – | – |
